The values that follow come from US20110118220A1, “Composition of bifonazole and its use” (priority 2009, published 2011).

The nature of data set [1]: Allergy study (repeated skin contact). In kind it is in vivo. From the text:
Observe the immune system response on skin after repeating skin contact animal skin with testing object.

The subject of a further data set is 543 common fungi. Nature of the data set: In vitro pharmacodynamics of nine antifungal agents against 543 common fungi. In kind it is cell-based.
Data set [2] concerns candida such as candida Albicans. As to the kind of experiment: In vitro antifungal activity (MIC), candida. In kind it is cell-based.
Excerpt: (§1) To understand the in vivo and in vitro antibacterial effects, and to determine the in vivo and in vitro antibacterial activity through measuring the compound Bifonazole cream (Bifonazole/Triamcinolone acetonide acetate) on common pathogenic fungi of the minimum inhibitory concentration (MIC).
Data set [3] can be described thus: Long-term toxicity study by skin exposure. In kind it is in vivo, rats. To be noted: rat. From the text: Observe the abnormal reaction and degree of reversibility of the reaction caused by skin penetration through long-term exposure the animal's skin to subject drug.
Data set [4] has as its system filamentous fungi represented by Trichophyton rubrum. As to the kind of experiment: In vitro antifungal activity (MIC), filamentous fungi. In kind it is cell-based.
Excerpt: as §1

Excerpt for 543 common fungi: as §1

With `O=[N+]([O-])c1ccc(Cl)c([N+](=O)[O-])c1` [2,4-dinitro-chlorobenzene], the average response in data set [1] (24 hours) amounted to 2.4; in data set [1] (48 hours), 2.7; in data set [1] (72 hours), 2.9; in data set [1] (by instance) it was 2.4. This molecule also registered an allergenic rate in data set [1] (in vivo) of 100%. Besides, in data set [1] (in vivo), the erythema and edema was 10 animals all have erythema and edema.
Regarding `c1ccc(-c2ccc(C(c3ccccc3)n3ccnc3)cc2)cc1` (stereo not shown) [Bifonazole], the “antimicrobial activity against common fungal skin infections compared with econazole, ketoconazole, clotrimazole and miconazole” value in the data set on 543 common fungi is on record as “slightly stronger”. In addition, the “antibacterial activity on candida” value in data set [2] is “a certain antibacterial activity”. Further, the “minimum toxic dosage on main target organ (liver)” value in data set [3] was found to be 2 g/kg. In addition, the “antibacterial activity on filamentous fungi” value in data set [4] is recorded as “strong antibacterial activity”.
